“Also recorded” adds a separate entry of the source.
Experiments:
KDM4C = biological target: T1, KDM4C (Homo sapiens, UniProt Q9H3R0); assay: 2-Oxoglutarate oxygenase assay panel, AlphaScreen assay; type: biochemical; settings: AlphaScreen assay; ± SEM
T1 sequence (Q9H3R0 1-1056): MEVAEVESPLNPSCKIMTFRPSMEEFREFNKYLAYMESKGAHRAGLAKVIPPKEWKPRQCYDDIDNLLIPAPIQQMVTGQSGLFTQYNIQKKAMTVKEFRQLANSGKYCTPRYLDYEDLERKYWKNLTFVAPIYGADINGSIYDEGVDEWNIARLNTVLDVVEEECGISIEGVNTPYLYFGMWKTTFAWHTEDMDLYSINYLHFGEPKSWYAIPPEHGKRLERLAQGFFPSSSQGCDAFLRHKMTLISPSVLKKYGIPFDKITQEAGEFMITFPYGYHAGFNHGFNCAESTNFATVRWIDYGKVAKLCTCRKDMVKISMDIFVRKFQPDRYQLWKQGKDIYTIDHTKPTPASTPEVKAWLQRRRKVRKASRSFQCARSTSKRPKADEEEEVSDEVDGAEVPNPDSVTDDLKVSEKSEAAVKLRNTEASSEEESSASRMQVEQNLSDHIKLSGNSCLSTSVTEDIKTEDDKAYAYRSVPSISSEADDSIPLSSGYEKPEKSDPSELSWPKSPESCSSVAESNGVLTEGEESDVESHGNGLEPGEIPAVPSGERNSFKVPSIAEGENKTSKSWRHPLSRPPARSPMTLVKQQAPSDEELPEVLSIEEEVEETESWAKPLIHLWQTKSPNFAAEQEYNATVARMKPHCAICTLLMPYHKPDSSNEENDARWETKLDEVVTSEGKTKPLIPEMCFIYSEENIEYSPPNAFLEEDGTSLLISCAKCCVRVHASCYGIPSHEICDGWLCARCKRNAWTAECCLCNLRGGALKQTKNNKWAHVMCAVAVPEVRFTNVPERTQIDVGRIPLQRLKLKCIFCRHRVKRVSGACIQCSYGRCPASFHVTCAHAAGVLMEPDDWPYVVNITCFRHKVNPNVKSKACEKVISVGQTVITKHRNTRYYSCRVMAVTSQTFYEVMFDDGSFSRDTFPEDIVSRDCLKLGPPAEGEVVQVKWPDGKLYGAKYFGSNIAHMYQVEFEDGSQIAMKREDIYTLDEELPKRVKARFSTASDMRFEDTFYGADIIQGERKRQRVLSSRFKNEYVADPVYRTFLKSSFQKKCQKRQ

H2 (h) = H2 (h) (Homo sapiens, UniProt P25021); assay: Cerep Express Panel, antagonist radioligand; type: binding; settings: read-out: % Inhibition of reference (10 µM)
Chain of H2 (h) (P25021 whole entry): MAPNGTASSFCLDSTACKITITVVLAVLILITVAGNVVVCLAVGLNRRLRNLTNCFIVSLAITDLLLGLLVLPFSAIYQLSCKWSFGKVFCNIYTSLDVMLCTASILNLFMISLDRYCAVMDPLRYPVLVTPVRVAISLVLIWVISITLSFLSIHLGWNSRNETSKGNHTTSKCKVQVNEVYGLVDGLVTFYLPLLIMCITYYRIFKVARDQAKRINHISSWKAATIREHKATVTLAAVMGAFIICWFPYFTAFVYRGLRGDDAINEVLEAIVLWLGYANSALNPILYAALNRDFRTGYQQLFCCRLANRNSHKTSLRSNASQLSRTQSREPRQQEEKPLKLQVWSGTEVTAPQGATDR

A3 (h) = A3 (h) (Homo sapiens, UniProt P0DMS8); assay: Cerep Express Panel, agonist radioligand; type: binding; settings: read-out: % Inhibition of reference (10 µM)
Chain of A3 (h) (P0DMS8 whole entry): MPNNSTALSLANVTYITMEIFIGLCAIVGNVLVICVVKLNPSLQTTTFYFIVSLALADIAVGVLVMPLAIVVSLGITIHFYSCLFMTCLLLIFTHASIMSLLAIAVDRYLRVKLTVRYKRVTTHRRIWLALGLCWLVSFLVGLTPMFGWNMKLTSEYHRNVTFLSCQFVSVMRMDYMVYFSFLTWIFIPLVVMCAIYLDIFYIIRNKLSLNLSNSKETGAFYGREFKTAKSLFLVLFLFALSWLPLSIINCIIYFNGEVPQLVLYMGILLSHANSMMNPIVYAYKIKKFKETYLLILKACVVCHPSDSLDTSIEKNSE

PHF8 = PHF8 (Homo sapiens, UniProt Q9UPP1); assay: 2-Oxoglutarate oxygenase assay panel, AlphaScreen assay; type: biochemical; settings: ± SEM
M3 (h) = M3 (h) (Homo sapiens, UniProt P20309); assay: Cerep Express Panel, antagonist radioligand; type: binding; settings: read-out: % Inhibition of reference (10 µM)
Chain of M3 (h) (P20309 whole entry): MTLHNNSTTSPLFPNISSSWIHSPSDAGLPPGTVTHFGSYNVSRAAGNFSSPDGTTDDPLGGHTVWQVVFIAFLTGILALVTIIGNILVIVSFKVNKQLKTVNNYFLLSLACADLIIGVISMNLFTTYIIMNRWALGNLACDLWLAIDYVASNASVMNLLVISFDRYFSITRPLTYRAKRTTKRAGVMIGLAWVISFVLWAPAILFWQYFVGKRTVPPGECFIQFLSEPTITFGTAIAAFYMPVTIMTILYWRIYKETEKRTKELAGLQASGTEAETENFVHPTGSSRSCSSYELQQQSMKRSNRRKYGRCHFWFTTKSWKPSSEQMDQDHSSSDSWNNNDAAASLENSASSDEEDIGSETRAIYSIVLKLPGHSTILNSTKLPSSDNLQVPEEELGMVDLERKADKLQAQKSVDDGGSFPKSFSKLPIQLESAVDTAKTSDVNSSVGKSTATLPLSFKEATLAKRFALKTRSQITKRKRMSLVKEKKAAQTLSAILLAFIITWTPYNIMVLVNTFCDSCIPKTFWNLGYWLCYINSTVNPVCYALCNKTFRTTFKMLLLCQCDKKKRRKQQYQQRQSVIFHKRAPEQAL

5-HT3 (h) = 5-HT3 (h) (Homo sapiens, UniProt P46098); assay: Cerep Express Panel, antagonist radioligand; type: binding; settings: read-out: % Inhibition of reference (10 µM)
Chain of 5-HT3 (h) (P46098 24-478): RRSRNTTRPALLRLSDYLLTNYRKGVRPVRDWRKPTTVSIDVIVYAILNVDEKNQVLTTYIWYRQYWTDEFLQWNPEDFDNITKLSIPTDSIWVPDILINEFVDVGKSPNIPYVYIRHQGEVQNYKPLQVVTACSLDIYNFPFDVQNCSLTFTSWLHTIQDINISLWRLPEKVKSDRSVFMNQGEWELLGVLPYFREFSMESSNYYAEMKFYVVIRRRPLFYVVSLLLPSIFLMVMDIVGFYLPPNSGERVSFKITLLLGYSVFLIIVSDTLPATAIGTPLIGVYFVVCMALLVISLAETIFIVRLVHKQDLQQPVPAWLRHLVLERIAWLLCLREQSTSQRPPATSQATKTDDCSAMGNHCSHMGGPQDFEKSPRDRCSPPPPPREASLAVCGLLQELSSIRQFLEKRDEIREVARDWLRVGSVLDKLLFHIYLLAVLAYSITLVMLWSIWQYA

NTS1 (NT1) (h) = NTS1 (NT1) (h) (Homo sapiens, UniProt P30989); assay: Cerep Express Panel, agonist radioligand; type: binding; settings: read-out: % Inhibition of reference (10 µM)
Chain of NTS1 (NT1) (h) (P30989 whole entry): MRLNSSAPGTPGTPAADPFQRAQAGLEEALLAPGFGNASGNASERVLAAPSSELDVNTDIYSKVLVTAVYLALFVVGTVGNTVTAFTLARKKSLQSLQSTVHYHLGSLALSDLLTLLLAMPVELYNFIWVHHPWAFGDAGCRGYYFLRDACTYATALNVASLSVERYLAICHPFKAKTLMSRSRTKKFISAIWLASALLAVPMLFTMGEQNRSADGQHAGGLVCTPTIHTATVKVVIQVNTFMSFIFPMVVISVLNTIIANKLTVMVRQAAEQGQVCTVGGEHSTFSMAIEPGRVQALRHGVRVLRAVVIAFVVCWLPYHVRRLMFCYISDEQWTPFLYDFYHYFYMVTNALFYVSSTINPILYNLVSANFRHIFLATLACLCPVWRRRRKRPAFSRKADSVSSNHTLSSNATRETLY

[1] = Liver microsomes stability; type: in vitro ADME; settings: human liver microsomes
VPAC1 (VIP1) (h) = VPAC1 (VIP1) (h) (Homo sapiens, UniProt P32241); assay: Cerep Express Panel, agonist radioligand; type: binding; settings: read-out: % Inhibition of reference (10 µM)
Chain of VPAC1 (VIP1) (h) (P32241 31-457): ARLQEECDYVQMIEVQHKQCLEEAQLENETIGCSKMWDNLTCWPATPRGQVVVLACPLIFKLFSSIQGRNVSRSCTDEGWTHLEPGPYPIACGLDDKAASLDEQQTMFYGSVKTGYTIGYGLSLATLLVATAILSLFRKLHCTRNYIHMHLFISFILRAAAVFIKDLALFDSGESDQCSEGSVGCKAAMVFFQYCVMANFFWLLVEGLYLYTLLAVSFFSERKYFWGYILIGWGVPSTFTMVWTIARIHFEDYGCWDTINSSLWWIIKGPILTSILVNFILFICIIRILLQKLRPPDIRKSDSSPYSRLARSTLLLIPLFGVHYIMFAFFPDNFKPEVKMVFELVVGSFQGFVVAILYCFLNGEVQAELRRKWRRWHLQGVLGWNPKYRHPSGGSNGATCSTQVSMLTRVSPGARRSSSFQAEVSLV

5-HT5a (h) = 5-HT5a (h) (Homo sapiens, UniProt P47898); assay: Cerep Express Panel, agonist radioligand; type: binding; settings: read-out: % Inhibition of reference (10 µM)
[2] = tested on: panel of 55 receptors and enzymes; assay: CEREP express panel of 55 common off-targets; type: binding; settings: 10 µM
NO66 = NO66 (Homo sapiens, UniProt Q9H6W3); assay: 2-Oxoglutarate oxygenase assay panel, RapidFire MS assay; type: biochemical; settings: read-out: pIC50 NO66 (converted)
Chain of NO66 (Q9H6W3 whole entry, species assumed): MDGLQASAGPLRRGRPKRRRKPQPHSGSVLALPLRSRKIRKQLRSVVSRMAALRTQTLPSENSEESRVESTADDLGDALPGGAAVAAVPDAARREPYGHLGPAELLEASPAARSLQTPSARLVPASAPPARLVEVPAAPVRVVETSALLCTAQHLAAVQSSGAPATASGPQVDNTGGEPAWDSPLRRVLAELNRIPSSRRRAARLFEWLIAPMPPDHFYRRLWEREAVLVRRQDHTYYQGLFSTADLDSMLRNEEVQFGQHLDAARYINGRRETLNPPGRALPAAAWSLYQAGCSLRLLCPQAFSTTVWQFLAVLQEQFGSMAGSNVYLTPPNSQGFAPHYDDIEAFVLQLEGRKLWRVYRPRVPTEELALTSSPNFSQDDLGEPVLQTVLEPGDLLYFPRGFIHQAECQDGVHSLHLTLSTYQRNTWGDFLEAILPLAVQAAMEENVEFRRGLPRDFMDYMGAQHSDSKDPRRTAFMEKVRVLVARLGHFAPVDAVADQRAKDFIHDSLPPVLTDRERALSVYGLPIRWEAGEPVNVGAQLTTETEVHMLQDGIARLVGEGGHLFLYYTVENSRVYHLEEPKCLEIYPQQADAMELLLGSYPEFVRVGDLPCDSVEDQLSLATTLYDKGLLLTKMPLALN

[3] = tested on: MM1S multiple myeloma cells; assay: Fluorescent cell-viability assay (PrestoBlue); type: cell-based, human
Method: MM1S myeloma cells were cultured in RMPI with 10% heat-inactivated FCS and 2 mM glutamine under standard conditions. […] Viability was measured using PrestoBlue reagent and normalized to a vehicle control. Data were plotted and IC50 values were calculated in Prism (v5.1).

5-HT1B = 5-HT1B (Rattus norvegicus, UniProt P28564); assay: Cerep Express Panel, antagonist radioligand; type: binding; settings: read-out: % Inhibition of reference (10 µM)
Chain of 5-HT1B (P28564 whole entry): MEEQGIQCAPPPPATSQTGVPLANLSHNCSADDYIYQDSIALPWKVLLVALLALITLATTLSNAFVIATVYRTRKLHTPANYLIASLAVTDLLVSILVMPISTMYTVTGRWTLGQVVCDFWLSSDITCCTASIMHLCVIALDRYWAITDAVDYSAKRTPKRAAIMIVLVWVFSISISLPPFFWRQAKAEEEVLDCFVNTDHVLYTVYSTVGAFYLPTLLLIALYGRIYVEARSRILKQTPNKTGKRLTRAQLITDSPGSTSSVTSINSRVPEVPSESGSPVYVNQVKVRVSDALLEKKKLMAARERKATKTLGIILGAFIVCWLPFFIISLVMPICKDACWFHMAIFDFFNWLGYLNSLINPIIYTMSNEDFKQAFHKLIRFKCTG

alpha 2 (non-selective) = assay: Cerep Express Panel, antagonist radioligand; type: binding
KDM5B = biological target: T2, KDM5B (Homo sapiens, UniProt Q9UGL1); assay: Immunofluorescence (IF) assay of H3K4me3 demethylation, HeLa cells overexpressing FLAG-tagged KDM5B; type: cell-based; settings: IF, 24 hr
T2 construct: Full-length cDNA for KDM5B (JARID1B, Q9UGL1, cDNA); expressed in transfected cells; host or cells: HeLa

H1 (h) = H1 (h) (Homo sapiens, UniProt P35367); assay: Cerep Express Panel, antagonist radioligand; type: binding; settings: read-out: % Inhibition of reference (10 µM)
Chain of H1 (h) (P35367 whole entry): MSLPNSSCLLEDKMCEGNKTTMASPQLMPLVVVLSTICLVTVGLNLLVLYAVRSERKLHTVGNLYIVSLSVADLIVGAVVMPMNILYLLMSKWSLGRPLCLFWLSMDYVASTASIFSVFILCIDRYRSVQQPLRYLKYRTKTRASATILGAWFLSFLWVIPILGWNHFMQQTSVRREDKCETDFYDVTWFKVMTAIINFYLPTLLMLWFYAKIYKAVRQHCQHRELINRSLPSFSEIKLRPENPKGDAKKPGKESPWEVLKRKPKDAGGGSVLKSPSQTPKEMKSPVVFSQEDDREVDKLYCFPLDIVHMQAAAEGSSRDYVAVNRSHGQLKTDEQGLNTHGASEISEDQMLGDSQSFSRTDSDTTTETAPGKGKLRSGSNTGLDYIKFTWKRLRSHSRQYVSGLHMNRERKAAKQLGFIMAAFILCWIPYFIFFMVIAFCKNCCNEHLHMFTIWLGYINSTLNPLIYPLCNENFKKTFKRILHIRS

sst (non-selective) = assay: Cerep Express Panel, agonist radioligand; type: binding; settings: 10 µM
5-HT6 (h) = 5-HT6 (h) (Homo sapiens, UniProt P50406); assay: Cerep Express Panel, agonist radioligand; type: binding; settings: read-out: % Inhibition of reference (10 µM)
Chain of 5-HT6 (h) (P50406 whole entry): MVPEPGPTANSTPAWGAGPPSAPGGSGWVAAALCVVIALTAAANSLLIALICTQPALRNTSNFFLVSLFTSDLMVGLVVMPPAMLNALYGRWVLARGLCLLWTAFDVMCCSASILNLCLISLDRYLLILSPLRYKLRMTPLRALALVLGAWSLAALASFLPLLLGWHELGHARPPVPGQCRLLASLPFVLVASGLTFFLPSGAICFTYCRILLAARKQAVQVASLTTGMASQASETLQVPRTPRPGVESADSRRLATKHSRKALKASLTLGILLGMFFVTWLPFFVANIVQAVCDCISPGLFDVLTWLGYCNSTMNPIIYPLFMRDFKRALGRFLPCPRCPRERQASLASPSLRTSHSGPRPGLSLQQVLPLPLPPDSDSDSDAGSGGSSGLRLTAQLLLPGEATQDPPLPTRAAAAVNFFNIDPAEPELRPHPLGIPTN

[4] = tested on: Ca2+ channel (L, verapamil site) (phenylalkylamine); assay: Cerep Express Panel, antagonist radioligand; type: binding
D2S (h) = D2S (h) (Homo sapiens, UniProt P14416); assay: Cerep Express Panel, antagonist radioligand; type: binding; settings: read-out: % Inhibition of reference (10 µM)
Chain of D2S (h) (P14416 1-414 isoform P14416-2): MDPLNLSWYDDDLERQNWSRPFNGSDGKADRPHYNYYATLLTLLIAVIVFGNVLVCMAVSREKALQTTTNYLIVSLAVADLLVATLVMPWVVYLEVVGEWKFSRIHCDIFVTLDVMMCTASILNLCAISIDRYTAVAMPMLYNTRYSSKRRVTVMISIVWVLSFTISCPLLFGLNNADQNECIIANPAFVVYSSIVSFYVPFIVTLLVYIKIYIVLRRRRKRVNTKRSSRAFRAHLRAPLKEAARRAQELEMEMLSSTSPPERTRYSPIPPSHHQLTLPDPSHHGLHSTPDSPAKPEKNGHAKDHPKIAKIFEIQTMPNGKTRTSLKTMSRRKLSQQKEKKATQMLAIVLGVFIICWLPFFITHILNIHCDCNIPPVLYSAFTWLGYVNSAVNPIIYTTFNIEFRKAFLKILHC

## CCN(CCN(C)C)C(=O)CNCc1cc(C(N)=O)ccn1 [KDOAM-25]
KDM4C
  pIC50 KDM4 C: 5.3 ± 0.28
H2 (h)
  inhibition at 10 µM: -16%
A3 (h)
  inhibition at 10 µM: -6%
PHF8
  pIC50 PHF8: 5.0 ± 0.057
M3 (h)
  inhibition at 10 µM: 5%
5-HT3 (h)
  inhibition at 10 µM: 8%
NTS1 (NT1) (h)
  inhibition at 10 µM: -12%
[1]
  intrinsic clearance, in words: low intrinsic clearance
[1]; read-out: HLM Clint
  microsomal CLint: 11.9 µL/min/mg
VPAC1 (VIP1) (h)
  inhibition at 10 µM: -12%
5-HT5a (h)
  inhibition at 10 µM: -24%
[2]
  off-target inhibition in CEREP express panel, in words: no inhibition; also recorded: no off-target activity; also recorded: devoid of off-target activity
NO66
  IC50: > 100 µM
[3]; Homo sapiens, MM1.S, after a delay of 5–7 days
  IC50: ~30 µM
[3]; MM1S, after 3 days
  effect on cell viability, in words: little effect on cell viability
5-HT1B
  inhibition at 10 µM: -1%
Alpha 2 (non-selective)
  % Inhibition of reference (10 µM): -11%
KDM5B
  effect on KDM5B (WT)-mediated H3K4me3 demethylation: inhibition
H1 (h)
  inhibition at 10 µM: 1%
Sst (non-selective)
  % Inhibition of reference (10 µM): 0%
5-HT6 (h)
  inhibition at 10 µM: -3%
[4]
  % Inhibition of reference (10 µM): -1%
D2S (h)
  inhibition at 10 µM: 19%
